The values below come from US20250144101A1, “LYSOSOMAL DYSFUNCTION IN NEUROLOGICAL AND PSYCHIATRIC DISORDERS” (The Johns Hopkins University, priority 2022, published 2025).

The subject of one test is α-galactosidase A. The note with it: cells from patients with Fabry disease; cited from earlier work.
The subject of test [1] is Cln3−/− mice. Briefly: Novel object recognition test, BD animal model. The format is in vivo. Particulars: CLN3 knockout (KO) mice, FIG. 4D. How it is done: Novel Object Recognition Test (NORT): The test was carried out according to the previously validated method (Hatayama et al., Neuroscience 265 (2014) 217-25). All mice were habituated for 1 hour to the NORT arena one day before the test day. On the day of testing, the mice were given two 5-min trials (T1 with two identical objects and T2 with a familiar object from T1 and a novel object), separated by 1-hour interval. The discrimination index (DI) ((time spent exploring the novel object−time spent exploring the familiar object)/total exploration time) was calculated for T2 trials.

Test [2] deals with lymphoblasts from BD patients with a Cln3 mutation. Description: LAMP1 staining of BD/JNCL patient lymphoblasts. The format is cell-based, human. The protocol: (§1) LAMP1 staining: Lymphoblasts were fixed with methanol and incubated overnight at 4° C. with anti-human LAMP1 antibody (1:400, Cell Signaling Technology) followed by secondary antibody (Alexa Fluor 488 donkey anti-rabbit IgG, 1:1000, Thermo Fisher Scientific). Neuronal cells differentiated from iPS cells were fixed with 4% paraformaldehyde (PFA) and incubated overnight at 4° C. with anti-human LAMP1 antibody (1:400, Cell Signaling Technology) followed by a secondary antibody (Alexa Fluor 488 donkey anti-rabbit IgG, 1:1000, Thermo Fisher Scientific). White blood cells from mice were fixed with methanol and incubated overnight at 4° C. with LAMP1 antibody (1:1000, Abcam) followed by a secondary antibody (Alexa Fluor 488 donkey anti-rabbit IgG, 1:1000, Thermo Fisher Scientific). KEYENCE BZ-X710 and BX-Z analyzer software were used for imaging quantification.

Another test concerns PLA2G4A. Briefly: RNA-sequencing in iPS cell-derived neurons: PLA2G4A expression. The format is cell-based. Particulars: WT and CLN3 KO human iPS cell-derived neurons, treated 2 weeks vs mock, FIG. 5A. An excerpt:
(§2) RNA-sequencing in iPS cell-derived neurons: Cells were differentiated from iPS cells and treated either with 0.1% DMSO or Compound A for 2 weeks. RNAs were extracted using RNeasy Mini Kit (QIAGEN). The libraries for RNA-sequencing were constructed by SMART-Seq v4 Ultra Low Input RNA Kit (Takara bio).

A further test deals with PLA2G7. Briefly: RNA-sequencing in iPS cell-derived neurons: PLA2G7 expression. The format is cell-based. The note with it: WT and CLN3 KO human iPS cell-derived neurons, treated 2 weeks vs mock, FIG. 5B.
Source text: as §2

Test [3] has as its system Cln3−/− mice. Briefly: LAMP1 staining of peripheral white blood cells, BD animal model. The note with it: CLN3 knockout (KO) mice, FIG. 4C. The format is in vivo. The protocol: as §1
Isolation of white blood cells from peripheral blood of mice: 20 μL of blood of mice was lysed with ACK lysing buffer (Lonza) for 1 min. After washing, cells were resuspended with RPMI.

Test [4] deals with lymphoblasts from BD patients with a Cln3 mutation. Description: Cellular autofluorescence (AF) in BD/JNCL patient lymphoblasts by flow cytometry. Type of test: cell-based, human. The protocol:
Autofluorescence (AF): AF levels in human blood cells were measured in 30,000 cells using flow cytometry at FL-1 with the BD FACSCalibur™ (BD Biosciences) (Excitation; 488 nm, Emission; 530±15 nm) (for FIGS. 1A-1C). AF levels in lymphoblasts were measured in 20,000 cells using flow cytometry with Attune Flow Cytometer (Thermo Fisher Scientific) (Excitation; 488 nm, Emission; 530 nm) (for FIGS. 2A and 2B).
On the technique in general: A flow cytometer gives signals particle by particle.

Test [5] concerns animal model of GM1 gangliosidosis. The note with it: cited from earlier work.
Test [6] relates to Neuronal cells differentiated from Cln3 mutant iPSCs. Description: LAMP1 staining of neuronal cells differentiated from Cln3 mutant iPSCs. Type of test: cell-based, human. The note with it: 0.4-10 μM, n=2-3, FIG. 2D. The protocol:
as §1

Turning to `OC[C@H]1NC[C@H](O)[C@@H](O)[C@H]1O` [1-deoxygalactonojirimycin (DGJ), 1-deoxygalactonojirimycin], the “residual α-galactosidase A activity” value in the test with α-galactosidase A is reported as “enhance residual α-galactosidase A activity”.
For the compound `CC(C)CN1CCCn2c1nc1ccc(NCCN(C)C)cc1c2=O` [Compound A, 8-{[2-(dimethylamino)ethyl]amino}-1-(2-methylpropyl)-1,2,3,4-tetrahydro-6H-pyrimido[2,1-b]quinazolin-6-one], the “cognitive deficits (novel object recognition test) of BD mice” value with Cln3−/− mice [1] is on record as “Amelioration of cognitive deficits”. Also, in test [2] (FIG. 4B), the “elevated LAMP1 signal in Batten disease (BD) lymphoblasts” value was “amelioration of elevated LAMP1 signal”. In addition, the “expression of PLA2G4A” value in the test with PLA2G4A is reported as “significantly influenced the expression of PLA2 genes”. Also, the “expression of PLA2G7” value in the test on PLA2G7 was “significantly influenced the expression of PLA2 genes”. For the same compound, in the test on Cln3−/− mice [3], the “elevated LAMP1 signal in peripheral white blood cells of BD mice” value is listed as “amelioration of elevated LAMP1 signal”. The “elevated autofluorescence (AF) in Batten disease (BD) lymphoblasts” value in [4] (FIG. 4A) was “amelioration of elevated autofluorescence (AF)”.
`CCCCCCCCNC1C=C(CO)C(O)C(O)C1O` (stereo not drawn) [N-octyl 4-epi-β-valienamine (NOEV), N-octyl 4-epi-β-valienamine]: the “residual activity in the brain” value in [5] is on record as “increased residual activity in the brain”.
Consider `CC(C)c1nc(N(C)S(C)(=O)=O)nc(-c2ccc(F)cc2)c1/C=C/[C@@H](O)C[C@@H](O)CC(=O)O` [rosuvastatin], for which the “anti-LAMP1 staining of neuronal cells differentiated from Cln3 mutant iPSCs” value in test [6] is listed as “dose-dependently decreased it”. Besides, the “anti-LAMP1 staining of JNCL patient lymphoblasts” value in [2] (10 μM, n=3, FIG. 2C) is “decreased it”. In test [2] (cites FIGS. 2C, 2D), the “lysosomal deficits found in BD lymphoblasts (LAMP1 expression and AF levels)” value is “ameliorate the lysosomal deficits”. Also, the “elevated autofluorescence (AF) of JNCL patient lymphoblasts” value in test [4] (10 μM, FIG. 2B) is “decreased it”.
